Reference: patent US6753348B2, “BTK inhibitors and methods for their identification and use” (Parker Hughes Institute, priority 1998, dated 2004)

Assays:
[1] = system: OVA-sensitized and challenged mice; experiment: Airway responsiveness to methacholine in mouse model of allergic asthma; assay type: in vivo; details: ovalbumin sensitized and challenged, N = 5-6 mice
Description: FIG. 28: Inhibition of airway hyperresponsiveness by LFM-A8 in mice. Mice were sensitized with ovalbumin (OVA) on days 0 and 14 intraperitoneally. On days 20, 21 and 23, mice were challenged for 15 min with 2% OVA via airways using a untrasonic nebulizer. After 24 h of the last OVA challenge airway responsiveness to increasing concentrations of methacholine was measured. To study the effect of LFM-A8 on airway hyperresponsiveness, mice were injected intraperitoneally with indicated concentrations of LFM-A8 or vehicle on day 20, 21, and 23 1 h prior and 2 h post OVA challenge and airway responsiveness to increasing concentrations of methacholine was measured. The data points represent the mean±SEM values (N=5-6 mice).
Mouse Model of Allergic Asthma. BALB/c mice were injected intraperitoneally with 20 μg of ovalbumin (OVA) in alum on day 0, and 14. On days 21, 22 and 23 the mice were challenged for 15 min with 2% OVA via their airways by ultrasonic nebulization (Takeda, K., et al., (1997) J Exp Med, 186, 449-454). In order to study the effect of LFM-A8 on allergic asthma, mice were treated with LFM-A8 or vehicle 2 h prior to OVA challenge on day 21, 22 and 23. Mice were assessed for “airway responsiveness” on day 24, as previously reported (Takeda, K., et al., (1997) J Exp Med, 186, 449-454; Hamelmann, E., et al., (1997) Am J Respir Crit Care Med, 156, 766-775) and described below.
Determination of Airway Responsiveness. Airway responsiveness was measured in unrestrained mice by noninvasive whole body plethysmography using a BUXCO BioSystem plethysmography instrument (BUXCO, Trou, N.Y.) (Hamelmann, E., et al., (1997) Am J Respir Crit Care Med, 156, 766-775). The chamber pressure was measured with a transducer connected to a preamplifier module and analyzed by system XA software) (Hamelmann, E., et al., (1997) Am J Respir Crit Care Med, 156, 766-775). The chamber pressure was used as a measure of the difference between thoracic volume expansion or contraction and air volume removed or added to the chamber during breathing. The differential of this function with respect to time produced a pseudo-flow value that is proportionate to the difference between the rate of the thoracic volume expansion and nasal air flow. The pulmonary airflow obstruction assessed by measuring “Enhanced Pause (Penh)” using the following formula according to the manufacturer's recommendations: Penh=PEP/PIP×Pause. […] In order to measure the methacholine responses, mice were placed in the chamber and baseline readings were taken and averaged for 3 min. Mice were nebulized with saline or methacholine at increasing doses (1-100 mg/ml) for 3 min and the Penh readings were taken and averaged for 3 min after each nebulization. […]

JAK2 = experiment: Tyrosine kinase assay JAK2 as named in text; assay type: biochemical; details: concentrations as high as 100 μg/ml (~278 μM)
[2] = system: B18.2, NALM-6 and ALL-1 cells; experiment: Chemosensitization to ceramide and vincristine, DNA fragmentation; assay type: cell-based; details: 100 μM plus VCR 10 ng/ml or C2-CER 10 μM, 24 hours
[3] = biological target: T1, Insulin-Receptor Kinase (IRK) (Homo sapiens, UniProt P06213); experiment: Cell-free tyrosine kinase inhibition assay IRK from HepG2 cells; assay type: biochemical
T1 construct: IRK was immunoprecipitated from the lysates with an anti-IRb antibody
T1 sequence (P06213 28-1382): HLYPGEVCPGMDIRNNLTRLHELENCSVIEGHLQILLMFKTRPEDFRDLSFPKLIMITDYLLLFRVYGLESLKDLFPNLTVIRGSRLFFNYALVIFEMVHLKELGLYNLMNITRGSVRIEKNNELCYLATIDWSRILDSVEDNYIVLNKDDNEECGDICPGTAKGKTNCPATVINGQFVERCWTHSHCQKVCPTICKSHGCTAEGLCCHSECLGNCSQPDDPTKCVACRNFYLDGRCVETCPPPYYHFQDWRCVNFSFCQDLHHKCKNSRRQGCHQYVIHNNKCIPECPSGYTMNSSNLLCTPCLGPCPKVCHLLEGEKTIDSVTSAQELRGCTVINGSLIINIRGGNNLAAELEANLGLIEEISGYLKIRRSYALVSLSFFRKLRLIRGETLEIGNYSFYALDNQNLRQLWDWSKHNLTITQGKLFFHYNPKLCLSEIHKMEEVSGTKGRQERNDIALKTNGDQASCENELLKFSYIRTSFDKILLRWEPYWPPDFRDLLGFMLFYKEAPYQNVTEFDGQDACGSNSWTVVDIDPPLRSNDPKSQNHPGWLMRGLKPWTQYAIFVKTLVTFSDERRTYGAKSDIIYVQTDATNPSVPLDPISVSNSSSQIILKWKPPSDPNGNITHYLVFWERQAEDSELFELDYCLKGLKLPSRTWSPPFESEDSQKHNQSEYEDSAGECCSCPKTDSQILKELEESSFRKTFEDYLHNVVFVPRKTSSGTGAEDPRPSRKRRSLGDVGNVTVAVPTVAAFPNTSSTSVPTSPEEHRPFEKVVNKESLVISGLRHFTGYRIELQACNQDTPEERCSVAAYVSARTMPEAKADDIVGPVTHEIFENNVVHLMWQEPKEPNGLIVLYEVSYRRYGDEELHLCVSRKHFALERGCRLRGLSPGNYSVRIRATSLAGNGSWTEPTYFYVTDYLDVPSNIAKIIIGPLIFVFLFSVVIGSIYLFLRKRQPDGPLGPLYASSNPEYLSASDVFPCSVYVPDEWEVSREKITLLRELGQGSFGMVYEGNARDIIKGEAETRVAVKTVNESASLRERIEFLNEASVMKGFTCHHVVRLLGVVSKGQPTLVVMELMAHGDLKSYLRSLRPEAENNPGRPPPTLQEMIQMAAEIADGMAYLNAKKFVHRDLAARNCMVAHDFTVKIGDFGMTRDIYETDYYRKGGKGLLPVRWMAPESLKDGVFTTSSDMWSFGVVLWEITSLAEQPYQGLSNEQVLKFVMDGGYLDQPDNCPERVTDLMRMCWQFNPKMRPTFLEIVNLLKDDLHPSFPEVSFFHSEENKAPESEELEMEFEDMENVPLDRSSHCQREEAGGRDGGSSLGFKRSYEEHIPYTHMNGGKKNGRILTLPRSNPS

ALL-1 cells = experiment: Ceramide-induced apoptosis, MC540/PI flow cytometry; assay type: cell-based, human; details: 200 μM plus 10 μM C2-ceramide

Compound | Requirement of Methacholine for an Increase in Penh of 100% ([1]; 15 mg/Kg intraperitoneally) | Requirement of Methacholine for an Increase in Penh of 200% ([1]; 15 mg/Kg intraperitoneally) | Requirement of Methacholine for an Increase in Penh of 100% ([1]; 50 mg/Kg intraperitoneally) | Requirement of Methacholine for an Increase in Penh of 200% ([1]; 50 mg/Kg intraperitoneally) | effect on enzymatic activity of JAK2 (JAK2) | sensitivity to ceramide-induced and vincristine-induced apoptosis [2] | IC50 ([3]; IRK) | effect on enzymatic activity of IRK ([3]; concentrations as high as 100 μg/ml (~278 μM)) | chemosensitivity to ceramide-induced apoptosis (ALL-1 cells)
CC(O)=C(C#N)C(=O)Nc1cccc(C(F)(F)F)c1 [LFM-A8, α-Cyano-β-hydroxy-β-methyl-N-[3-(trifluoromethyl)phenyl]-propenamide] | 36.8 mg/mL | 82 mg/mL | 67.5 mg/mL | 129 mg/mL |  |  |  |  | 
C/C(O)=C(\C#N)C(=O)Nc1cc(Br)ccc1Br [LFM-A13, α-Cyano-β-hydroxy-β-methyl-N-(2,5-dibromophenyl)-propenamide] |  |  |  |  | did not affect the enzymatic activity | enhances the sensitivity | > 278 µM | did not affect the enzymatic activity | significantly enhanced the chemosensitivity
